Measurements: US6943183B2 (Pfizer Inc, priority 2000, dated 2005)

Target: T1, SF9 affinity purified rat FPT (Rattus norvegicus, UniProt Q02293+Q04631)
T1 construct: made in house; host or cells: Sf9 insect cells
Experiment: PFT (FPT) inhibitory activity assay, radiolabeled farnesyl pyrophosphate and biotinyl peptide, streptavidin beads
Format: biochemical
Conditions: HEPES buffer pH 7.4, 30° C., 30 minutes; read-out: FTase IC50
How it was run: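 Rat FPT expressed in SF9 cells was incubated 30 minutes at 30° C. with compound (in 10% DMSO), radiolabeled farnesyl pyrophosphate and biotinylated peptide. Buffer: HEPES pH 7.4, ZnCl2 20 μM, MgCl2 and DTT 5 mM each, 0.1% PEG 8000, 5 mM potassium phosphate (also run without phosphate). Product captured on streptavidin beads in magnesium acetate/H3PO4 stop buffer.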

Structure (SMILES)	IC50
O=C1CCCc2c1ccc(O[C@H](Cn1ccnc1)c1ccccc1)c2COc1ccccc1F [Compound 101]	3 nM
O=C1CCCc2c1ccc(O[C@H](Cn1ccnc1)c1ccccc1)c2COc1cccc(F)c1 [Compound 102]	5 nM
O=C1CCCc2c1ccc(O[C@H](Cn1ccnc1)c1ccccc1)c2COc1ccc(F)cc1 [Compound 103, 6-((1S)-2-Imidazolyl-1-phenylethoxy)-5-[(4-fluorophenoxy)methyl]-2,3,4-trihydronaphthalen-1-one]	5 nM
O=C1CCCc2c1ccc(O[C@H](Cn1ccnc1)c1ccccc1)c2COc1cccc2ccccc12 [Compound 104, 6-((1S)-2-Imidazolyl-1-phenylethoxy)-5-(naphenyloxymethyl)-2,3,4-trihydronaphthalen-1-one]	5 nM
COc1cccc(OCc2c(O[C@H](Cn3ccnc3)c3ccccc3)ccc3c2CCCC3=O)c1 [Compound 105, 6-((1S)-2-Imidazolyl-1-phenylethoxy)-5-[(3-methoxyphenoxy)methyl]-2,3,4-trihydronaphthalen-1-one]	5 nM
O=C1CCCc2c1ccc(O[C@H](Cn1ccnc1)c1ccccc1)c2COc1ccccc1Cl [Compound 106]	6 nM
O=C1CCCc2c1ccc(O[C@H](Cn1ccnc1)c1ccccc1)c2COc1ccc2ncccc2c1 [Compound 107, 6-((1S)-2-Imidazolyl-1-phenylethoxy)-5-(6-quinolyloxymethyl)-2,3,4-trihydronaphthalen-1-one]	10 nM
O=C1CCCc2c1ccc(O[C@H](Cn1ccnc1)c1ccccc1)c2COc1ccc2ncccc2c1 [Compound 108, 6-((1S)-2-Imidazolyl-1-phenylethoxy)-5-(6-quinolyloxymethyl)-2,3,4-trihydronaphthalen-1-one]	3 nM
O=C1CCCc2c1ccc(O[C@H](Cn1ccnc1)c1ccccc1)c2CSc1ccc(Br)cc1 [Compound 109, 6-((1S)-2-Imidazolyl-1-phenylethoxy)-5-[(4-bromophenylthio)methyl]-2,3,4-trihydronaphthalen-1-one]	30 nM
O=C1CCCc2c1ccc(O[C@H](Cn1ccnc1)c1ccccc1)c2CSC1CCCCC1 [Compound 117]	1 nM
O=C(O)c1cccnc1SCc1c(O[C@H](Cn2ccnc2)c2ccccc2)ccc2c1CCCC2=O [Compound 126, 2-{[2-((1S)-2-Imidazolyl-1-phenylethoxy)-5-oxo-6,7,8-trihydronaphenyl]methylthio}pyridine-3-carboxylic acid]	19 nM
COc1ccc([S+]([O-])Cc2c(O[C@H](Cn3ccnc3)c3ccccc3)ccc3c2CCCC3=O)cc1 (stereo partly drawn) [Compound 141, 6-((S)-2-Imidazol-1-yl-1-phenyl-ethoxy)-5-(4-methoxy-benzenesulfinylmethyl)-3,4-dihydro-2H-napthalen-1-one]	0.35 nM
CC(=O)N(Cc1c(O[C@H](Cn2ccnc2)c2ccccc2)ccc2c1CCCC2=O)c1ccc(C)cc1 [Compound 144, N-[2-((S)-2-Imidazol-1-yl-1-phenyl-ethoxy)-5-oxo-5,6,7,8-tetrahydro-naphthalen-1-ylmethyl]-N-β-tolyl-acetamide]	35 nM
O=C1CCCc2c1ccc(O[C@H](Cn1ccnc1)c1ccccc1)c2CNc1ccc2[nH]ncc2c1 [Compound 145]	16 nM
O=C1CCCc2c1ccc(O[C@H](Cn1ccnc1)c1ccccc1)c2CN1CCN(c2ccccc2)CC1 [Compound 146, 6-((S)-2-Imidazol-1-yl-1-phenyl-ethoxy)-5-(4-phenyl-piperazin-1-ylmethyl)-3,4-dihydro-2H-napthalen-1-one]	34 nM
O=C1CCCc2c1ccc(O[C@H](Cn1ccnc1)c1ccccc1)c2CN1CCN(c2ccccn2)CC1 [Compound 147, 6-((S)-2-Imidazol-1-yl-1-phenyl-ethoxy)-5-(4-pyridin-2-yl-piperazin-1-ylmethyl)-3,4-dihydro-2H-napthalen-1-one]	19 nM
O=C1CCCc2c1ccc(O[C@H](Cn1ccnc1)c1ccccc1)c2CNc1cccc2cccnc12 [Compound 148, 6-((S)-2-Imidazol-1-yl-1-phenyl-ethoxy)-5-(quinolin-8-ylaminomethyl)-3,4-dihydro-2H-napthalen-1-one]	5.3 nM
N#Cc1ccccc1NCc1c(O[C@H](Cn2ccnc2)c2ccccc2)ccc2c1CCCC2=O [Compound 149, 2-{[2-((S)-2-Imidazol-1-yl-1-phenyl-ethoxy)-5-oxo-5,6,7,8-tetrahydro-napthalen-1-ylmethyl]-amino}-benzonitrile]	3 nM

Structure (SMILES)	IC50
O=C1CCCc2c1ccc(O[C@H](Cn1ccnc1)c1ccccc1)c2CNc1ccc(Br)cc1 [Compound 150, 5-[(4-Bromo-phenylamino)-methyl]-6-((S)-2-imidazol-1-yl-1-phenyl-ethoxy)-3,4-dihydro-2H-napthalen-1-one]	16 nM
O=C1CCCc2c1ccc(O[C@H](Cn1ccnc1)c1ccccc1)c2CNc1ccc(F)cc1 [Compound 151, 5-[(4-Fluoro-phenylamino)-methyl]-6-((S)-2-imidazol-1-yl-1-phenyl-ethoxy)-3,4-dihydro-2H-napthalen-1-one]	19 nM
O=C1CCCc2c1ccc(O[C@H](Cn1ccnc1)c1ccccc1)c2CNc1ccc2c(c1)OCCO2 [Compound 152, 5-[(2,3-Dihydro-benzo[1,4]dioxin-6-ylamino)-methyl]-6-((S)-2-imidazol-1-yl-1-phenyl-ethoxy)-3,4-dihydro-2H-napthalen-1-one]	5 nM
O=C1CCCc2c1ccc(O[C@H](Cn1ccnc1)c1ccccc1)c2CSCc1ccc(Cl)c(Cl)c1 [Compound 153, 5-(3,4-Dichloro-benzylsulfanylmethyl)-6-((1S)-2-imidazol-1-yl-1-phenyl-ethoxy)-3,4-dihydro-2H-naphthalen-1-one]	15 nM
COC(=O)c1ccccc1S(=O)(=O)Cc1c(O[C@H](Cn2ccnc2)c2ccccc2)ccc2c1CCCC2=O [Compound 154, Methyl 2-{[(2-{[(1S)-2-(1H-Imidazol-1-yl)-1-phenylethyl]oxy}-5-oxo-5,6,7,8-tetrahydro-1-naphthalenyl)methyl]sulfonyl}benzoate]	2.6 nM
COC(=O)c1ccc(S(=O)(=O)Cc2c(O[C@H](Cn3ccnc3)c3ccccc3)ccc3c2CCCC3=O)cc1 [Compound 155, Methyl 4-{[(2-{[(1S)-2-(1H-Imidazol-1-yl)-1-phenylethyl]oxy}-5-oxo-5,6,7,8-tetrahydro-1-naphthalenyl)methyl]sulfonyl}benzoate]	20 nM
COC(=O)c1cccc(S(=O)(=O)Cc2c(O[C@H](Cn3ccnc3)c3ccccc3)ccc3c2CCCC3=O)c1 [Compound 156]	5 nM
COC(=O)c1ccc(SCc2c(O[C@H](Cn3ccnc3)c3ccccc3)ccc3c2CCCC3=O)cc1 [Compound 157, Methyl 4-{[(2-{[(1S)-2-(1H-Imidazol-1-yl)-1-phenylethyl]oxy}-5-oxo-5,6,7,8-tetrahydro-1-naphthalenyl)methyl]sulfanyl}benzoate]	4 nM
COC(=O)c1cccc(SCc2c(O[C@H](Cn3ccnc3)c3ccccc3)ccc3c2CCCC3=O)c1 [Compound 158, Methyl 3-{[(2-{[(1S)-2-(1H-Imidazol-1-yl)-1-phenylethyl]oxy}-5-oxo-5,6,7,8-tetrahydro-1-naphthalenyl)methyl]sulfanyl}benzoate]	4 nM
O=C(O)c1ccccc1S(=O)(=O)Cc1c(O[C@H](Cn2ccnc2)c2ccccc2)ccc2c1CCCC2=O [Compound 159, 2-{[(2-{[(1S)-2-(1H-Imidazol-1-yl)-1-phenylethyl]oxy}-5-oxo-5,6,7,8-tetrahydro-1-naphthalenyl)methyl]sulfonyl}benzoic Acid]	5.5 nM
O=C(O)c1ccc(S(=O)(=O)Cc2c(O[C@H](Cn3ccnc3)c3ccccc3)ccc3c2CCCC3=O)cc1 [Compound 160, 4-{[(2-{[(1S)-2-(1H-Imidazol-1-yl)-1-phenylethyl]oxy}-5-oxo-5,6,7,8-tetrahydro-1-naphthalenyl)methyl]sulfonyl}benzoic Acid]	10 nM
O=C(O)c1cccc(S(=O)(=O)Cc2c(O[C@H](Cn3ccnc3)c3ccccc3)ccc3c2CCCC3=O)c1 [Compound 161, 3-{[(2-{[(1S)-2-(1H-Imidazol-1-yl)-1-phenylethyl]oxy}-5-oxo-5,6,7,8-tetrahydro-1-naphthalenyl)methyl]sulfonyl}benzoic Acid]	5 nM
O=C(O)c1ccc(SCc2c(O[C@H](Cn3ccnc3)c3ccccc3)ccc3c2CCCC3=O)cc1 [Compound 162, 4-{[(2-{[(1S)-2-(1H-Imidazol-1-yl)-1-phenylethyl]oxy}-5-oxo-5,6,7,8-tetrahydro-1-naphthalenyl)methyl]sulfanyl}benzoic Acid]	8 nM
O=C(O)c1cccc(SCc2c(O[C@H](Cn3ccnc3)c3ccccc3)ccc3c2CCCC3=O)c1 [Compound 163, 3-{[(2-{[(1S)-2-(1H-Imidazol-1-yl)-1-phenylethyl]oxy}-5-oxo-5,6,7,8-tetrahydro-1-naphthalenyl)methyl]sulfanyl}benzoic Acid]	5 nM
CNC(=O)c1ccccc1S(=O)(=O)Cc1c(O[C@H](Cn2ccnc2)c2ccccc2)ccc2c1CCCC2=O [Compound 164, 2-{[(2-{[(1S)-2-(1H-Imidazol-1-yl)-1-phenylethyl]oxy}-5-oxo-5,6,7,8-tetrahydro-1-naphthalenyl)methyl]sulfonyl)-N-methylbenzamide]	5.3 nM
O=C(NCCO)c1ccccc1S(=O)(=O)Cc1c(O[C@H](Cn2ccnc2)c2ccccc2)ccc2c1CCCC2=O [Compound 165, N-(2-Hydroxyethyl)-2-{[(2-{[(1S)-2-(1H-imidazol-1-yl)-1-phenylethyl]oxy}-5-oxo-5,6,7,8-tetrahydro-1-naphthalenyl)methyl]sulfonyl}benzamide]	6.4 nM
O=C(O)CCNC(=O)c1ccc(S(=O)(=O)Cc2c(O[C@H](Cn3ccnc3)c3ccccc3)ccc3c2CCCC3=O)cc1 [Compound 166, N-4-{[(2-{[(1S)-2-(1H-Imidazol-1-yl)-1-phenylethyl]oxy}-5-oxo-5,6,7,8-tetrahydro-1-naphthalenyl)methyl]sulfonyl}benzoyl-β-alanine]	30 nM
